In ChEMBL document CHEMBL4017477, “Synthesis and evaluation of 4,6-disubstituted pyrimidines as CNS penetrant pan-muscarinic antagonists with a novel chemotype” (Bioorg Med Chem Lett, 2017):

Tests used:
[1] = target: T1, Muscarinic acetylcholine receptor M4 (Homo sapiens, UniProt P08173); experiment: Antagonist activity at recombinant human M4 receptor expressed in CHO cells co-expressing Gqi5 by calcium mobilization assay; format: functional, cell-based
T1 sequence (P08173 whole entry): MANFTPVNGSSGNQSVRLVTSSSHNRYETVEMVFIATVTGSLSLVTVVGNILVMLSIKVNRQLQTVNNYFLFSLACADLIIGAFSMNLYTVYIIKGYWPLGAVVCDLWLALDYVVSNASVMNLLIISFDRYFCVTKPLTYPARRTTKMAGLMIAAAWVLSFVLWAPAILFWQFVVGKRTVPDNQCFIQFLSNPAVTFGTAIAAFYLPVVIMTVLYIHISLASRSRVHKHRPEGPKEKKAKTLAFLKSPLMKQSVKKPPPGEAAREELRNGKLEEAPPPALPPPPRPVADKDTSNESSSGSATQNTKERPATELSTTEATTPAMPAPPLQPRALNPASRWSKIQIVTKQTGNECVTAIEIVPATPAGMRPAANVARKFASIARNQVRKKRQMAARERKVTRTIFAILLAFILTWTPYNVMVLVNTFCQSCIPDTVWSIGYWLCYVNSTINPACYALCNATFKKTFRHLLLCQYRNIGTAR

[2] = target: T2, Muscarinic acetylcholine receptor M4 (Homo sapiens) (UniProt P08173); experiment: Antagonist activity at recombinant human M4 receptor expressed in CHO cells co-expressing Gqi5 by calcium mobilization assay relative to acetylcholine; format: functional, cell-based
T2 sequence (whole entry): T1 sequence (P08173 whole entry)

Structure (SMILES)	IC50 ([1]; read-out: IC50) [µM]	IC50 ([1]; read-out: pIC50 (converted)) [µM]	Emin [2] [%]
O=C(NCc1ccccc1)C1CCN(c2cc(Oc3ccc(F)cc3F)ncn2)CC1	> 10	–	–
COc1ccc2c(c1)CCN(C(=O)C1CCN(c3cc(Oc4ccc(F)cc4F)ncn3)CC1)C2	0.58	0.562	5.5
O=C(C1CCN(c2cc(Oc3cccc(F)c3F)ncn2)CC1)N1CCc2ccccc2C1	0.19	0.17	3.1
O=C(C1CCN(c2cc(Oc3ccc(F)cc3)ncn2)CC1)N1CCc2ccccc2C1	0.24	0.229	3.5
COc1ccc(Oc2cc(N3CCC(C(=O)N4CCc5ccccc5C4)CC3)ncn2)cc1	0.46	–	5.3
COc1ccc2c(c1)CN(C(=O)C1CCN(c3cc(Oc4ccc(F)cc4F)ncn3)CC1)CC2	2.47	2.4	11.8
O=C(C1CCN(c2cc(Oc3ccc4c(c3)OCO4)ncn2)CC1)N1CCc2ccccc2C1	0.51	–	4.1
O=C(C1CCN(c2cc(Oc3cc(F)ccc3F)ncn2)CC1)N1CCc2ccccc2C1	0.08	–	3.1
Cc1ccc(Oc2cc(N3CCC(C(=O)N4CCc5ccccc5C4)CC3)ncn2)cc1	0.31	–	3.3
O=C(C1CCN(c2cc(Oc3ccc4ccccc4c3)ncn2)CC1)N1CCc2ccccc2C1	–	–	6.8
O=C(C1CCN(c2cc(Oc3ccccc3)ncn2)CC1)N1CCc2ccccc2C1	0.65	0.617	2.7
O=C(C1CCN(c2cc(Oc3ccc(F)cc3F)ncn2)CC1)N1CCC2CCCCC2C1 (configuration not stated)	0.41	–	5.1
